Assay results taken from US6689790B2, “Substituted triazolopyridine compounds” (Hoffmann-La Roche Inc., priority 2001, dated 2004).
Like-named read-outs stand apart in the source and are kept apart here.

Columns and labels:
[1] = molecular target: T1, human adenosine A2A receptor (Homo sapiens, UniProt P29274); experiment: [3H]-SCH-58261 binding assay, human adenosine A2A receptor (CHO cell membranes, SPA); details: for Ki: [3H]-SCH-58261 displacement, read-out: hA2a Ki; for Select. A1/A2a: ratio hA1 Ki / hA2a Ki
T1 construct: expressed in transfected cells; host or cells: CHO cells, semliki forest virus expression system; washed membranes
T1 sequence (P29274 whole entry): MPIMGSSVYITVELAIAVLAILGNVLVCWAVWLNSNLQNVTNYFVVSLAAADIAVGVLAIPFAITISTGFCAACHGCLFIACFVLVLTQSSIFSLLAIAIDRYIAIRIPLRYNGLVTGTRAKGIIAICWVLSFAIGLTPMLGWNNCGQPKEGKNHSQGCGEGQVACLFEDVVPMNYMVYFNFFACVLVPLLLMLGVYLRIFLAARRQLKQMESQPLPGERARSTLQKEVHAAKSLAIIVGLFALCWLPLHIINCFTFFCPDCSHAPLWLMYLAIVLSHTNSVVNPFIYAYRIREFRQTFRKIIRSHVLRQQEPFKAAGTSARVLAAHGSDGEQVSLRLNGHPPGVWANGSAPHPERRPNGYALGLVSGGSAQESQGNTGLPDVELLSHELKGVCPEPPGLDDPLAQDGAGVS
Method: Human Adenosine A2A Receptor
The human adenosine A2A receptor was recombinantly expressed in chinese hamster ovary (CHO) cells using the semliki forest virus expression system. Cells were harvested, washed twice by centrifugation, homogenized and again washed by centrifugation. The final washed membrane pellet was suspended in a Tris (50 mM) buffer containing 120 mM NaCl, 5 mM KCl, 2 mM CaCl2 and 10 mM MgCl2 (pH 7.4) (buffer A). […] Compounds were tested at 10 concentrations from 10 μM-0.3 nM. All assays were conducted in duplicate and repeated at least two times. Assay plates were incubated for 1 hour at room temperature before centrifugation and then bound ligand determined using a Packard Topcount scintillation counter. IC50 values were calculated using a non-linear curve fitting program and Ki values calculated using the Cheng-Prussoff equation.

[2] = molecular target: T2, hA1 (Homo sapiens, UniProt P30542); experiment: hA1 receptor affinity (Ki); type: binding; details: list of examples 10-108
T2 sequence (P30542 1-326): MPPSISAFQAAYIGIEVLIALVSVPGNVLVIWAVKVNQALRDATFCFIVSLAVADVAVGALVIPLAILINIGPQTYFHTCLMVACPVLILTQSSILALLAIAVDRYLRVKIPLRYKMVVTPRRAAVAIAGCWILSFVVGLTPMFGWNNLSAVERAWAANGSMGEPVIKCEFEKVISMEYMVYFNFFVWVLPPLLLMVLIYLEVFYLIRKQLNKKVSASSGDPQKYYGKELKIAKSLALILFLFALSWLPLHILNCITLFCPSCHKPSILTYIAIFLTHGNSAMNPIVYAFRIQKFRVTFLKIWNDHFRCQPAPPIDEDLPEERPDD

[3] = Ki by Cheng-Prussoff, table of preferred compounds

Row | Structure (SMILES) | Ki ([1]; list of examples 10-108) [nM] | Select. A1/A2a [1] | Ki [2] [nM] | Ki [1, 3] [nM]
1 | CC1CCCCN1C(=O)c1cc(N)c2nc(-c3ccco3)nn2c1 (stereo not drawn) [Example 39, (8-Amino-2-furan-2-yl-[1,2,4]triazolo[1,5-a]pyridin-6-yl)-(2-methyl-piperidin-1-yl)-methanone] | 136 | 16.1 | 2190 | 
2 | NC(=O)[C@H]1CCCN1C(=O)c1cc(N)c2nc(-c3ccco3)nn2c1 [Example 43, 1-(8-Amino-2-furan-2-yl-[1,2,4]triazolo[1,5-a]pyridine-6-carbonyl)-pyrrolidine-2-R-carboxylic acid amide] | 138 | 16.9 | 2330 | 
3 | COC[C@H]1CCCN1C(=O)c1cc(N)c2nc(-c3ccco3)nn2c1 [Example 42, (8-Amino-2-furan-2-yl-[1,2,4]triazolo[1,5-a]pyridin-6-yl)-(2-S-methoxymethyl-pyrrolidin-1-yl)-methanone] |  | 81.1 | 5630 | 69.4
4 | Nc1cc(C(=O)N2CCSCC2)cn2nc(-c3ccc(Br)o3)nc12 [Example 23, [8-Amino-2-(5-bromo-furan-2-yl)-[1,2,4]triazolo[1,5-a]pyridin-6-yl]-thiomorpholin-4-yl-methanone] |  |  | 937 | 
5 | Nc1cc(C(=O)N2CCCC2)cn2nc(-c3cccs3)nc12 [Example 51, (8-Amino-2-thiophen-2-yl-[1,2,4]triazolo[1,5-a]pyridin-6-yl)-pyrrolidin-1-yl-methanone] |  |  | 725 | 
6 | CC1CCCN1C(=O)c1cc(N)c2nc(-c3ccc(Br)o3)nn2c1 (stereo not drawn) [Example 12, [8-Amino-2-(5-bromo-furan-2-yl)-[1,2,4]triazolo[1,5-a]pyridin-6-yl]-(2-methyl-pyrrolidin-1-yl)-methanone] |  |  | 1120 | 
7 | Nc1cc(C(=O)N2CCCC2)cn2nc(-c3ccco3)nc12 [Example 34, (8-Amino-2-furan-2-yl-[1,2,4]triazolo[1,5-a]pyridin-6-yl)-pyrrolidin-1-yl-methanone] |  |  | 4200 | 
8 | COC[C@@H]1CCCN1C(=O)c1cc(N)c2nc(-c3ccc(Br)o3)nn2c1 [Example 16, [8-Amino-2-(5-bromo-furan-2-yl)-[1,2,4]triazolo[1,5-a]pyridin-6-yl]-(2-methoxymethyl-pyrrolidin-1-yl)-methanone] |  |  | 1050 | 
9 | CN(C)C(=O)CN(C)C(=O)c1cc(N)c2nc(-c3ccc(Br)o3)nn2c1 [Example 19, 8-Amino-2-(5-bromo-furan-2-yl)-[1,2,4]triazolo[1,5-a]pyridine-6-carboxylic acid dimethylcarbamoyl-methyl-methyl-amide] |  |  | 3000 | 
10 | Nc1cc(C(=O)N(Cc2ccccc2)Cc2ccccc2)cn2nc(-c3ccco3)nc12 [Example 48, 8-Amino-2-furan-2-yl-[1,2,4]triazolo[1,5-a]pyridine-6-carboxylic acid dibenzylamide] | 32.7 | 7.5 | 247 | 
11 | Cc1ccc(-c2nc3c(N)cc(C(=O)N4CCCC(C)C4)cn3n2)o1 (stereo not drawn) [Example 88, [8-Amino-2-(5-methyl-furan-2-yl)-[1,2,4]triazolo[1,5-a]pyridin-6-yl]-(3-methyl-piperidin-1-yl)-methanone] |  | 24 | 1350 | 56.2
12 | CN(CCc1ccccc1)C(=O)c1cc(N)c2nc(-c3ccc(Br)o3)nn2c1 [Example 25, 8-Amino-2-(5-bromo-furan-2-yl)-[1,2,4]triazolo[1,5-a]pyridine-6-carboxylic acid methyl-phenethyl-amide] |  |  | 590 | 
13 | CCCN(C)C(=O)c1cc(N)c2nc(-c3ccc(Br)o3)nn2c1 [Example 21, 8-Amino-2-(5-bromo-furan-2-yl)-[1,2,4]triazolo[1,5-a]pyridine-6-carboxylic acid methyl-propyl-amide] |  |  | 1150 | 
14 | COCC1CCCN1C(=O)c1cc(N)c2nc(-c3ccco3)nn2c1 (stereo in doubt) [Example 41, (8-Amino-2-furan-2-yl-[1,2,4]triazolo[1,5-a]pyridin-6-yl)-(2-R-methoxymethyl-pyrrolidin-1-yl)-methanone] |  | 56.2 | 4360 | 77.6
15 | CN(CCC#N)C(=O)c1cc(N)c2nc(-c3ccc(Br)o3)nn2c1 [Example 24, 8-Amino-2-(5-bromo-furan-2-yl)-[1,2,4]triazolo[1,5-a]pyridine-6-carboxylic acid (2-cyano-ethyl)-methyl-amide] | 111 | 7.5 | 830 | 
16 | C[C@@H]1C[C@@H](C)CN(C(=O)c2cc(N)c3nc(-c4ccc(Br)o4)nn3c2)C1 (stereo in doubt) [Example 14, [8-Amino-2-(5-bromo-furan-2-yl)-[1,2,4]triazolo[1,5-a]pyridin-6-yl]-(3,5-dimethyl-piperidin-1-yl)-methanone] |  | 32 | 1190 | 37.2

Row | Structure (SMILES) | Ki ([1]; list of examples 10-108) [nM] | Select. A1/A2a [1] | Ki [2] [nM] | Ki [1, 3] [nM]
17 | Cc1ccc(-c2nc3c(N)cc(C(=O)N4CCCC4C)cn3n2)o1 (stereo not drawn) [Example 85, [8-Amino-2-(5-methyl-furan-2-yl)-[1,2,4]triazolo[1,5-a]pyridin-6-yl]-(2-methyl-pyrrolidin-1-yl)-methanone] |  | 18.1 | 1360 | 75.2
18 | CC1CCCCN1C(=O)c1cc(N)c2nc(-c3ccc(Br)o3)nn2c1 (stereo not drawn) [Example 15, [8-Amino-2-(5-bromo-furan-2-yl)-[1,2,4]triazolo[1,5-a]pyridin-6-yl]-(2-methyl-piperidin-1-yl)-methanone] |  |  | 1940 | 
19 | Nc1cc(C(=O)N2CCCC2)cn2nc(-c3ccccn3)nc12 [Example 26, (8-Amino-2-pyridin-2-yl-[1,2,4]triazolo[1,5-a]pyridin-6-yl)-pyrrolidin-1-yl-methanone] |  |  | 3570 | 
20 | CN(C)C(=O)[C@@H]1CCCN1C(=O)c1cc(N)c2nc(-c3ccc(Br)o3)nn2c1 [Example 18, 1-[8-Amino-2-(5-bromo-furan-2-yl)-[1,2,4]triazolo[1,5-a]pyridine-6-carbonyl]-pyrrolidine-2-carboxylic acid (S)-dimethylamide] |  | 16.5 | 1110 | 67
21 | COCC1CCCN1C(=O)c1cc(N)c2nc(-c3ccc(Br)o3)nn2c1 (stereo in doubt) [Example 17, [8-Amino-2-(5-bromo-furan-2-yl)-[1,2,4]triazolo[1,5-a]pyridin-6-yl]-((S)-2-methoxymethyl-pyrrolidin-1-yl)-methanone] |  |  | 1230 | 
22 | CCN(CC)C(=O)C1CCCN(C(=O)c2cc(N)c3nc(-c4ccc(Br)o4)nn3c2)C1 (stereo not drawn) [Example 13, 1-[8-Amino-2-(5-bromo-furan-2-yl)-[1,2,4]triazolo[1,5-a]pyridine-6-carbonyl]-piperidine-3-carboxylic acid diethylamide] |  |  | 2690 | 
23 | Nc1cc(C(=O)N2CCCCC2)cn2nc(-c3ccco3)nc12 [Example 35, (8-Amino-2-furan-2-yl-[1,2,4]triazolo[1,5-a]pyridin-6-yl)-piperidin-1-yl-methanone] |  |  | 3440 | 
24 | Nc1cc(C(=O)N2CCCC2)cn2nc(-c3ccc(Br)o3)nc12 [Example 11, [8-Amino-2-(5-bromo-furan-2-yl)-[1,2,4]triazolo[1,5-a]pyridin-6-yl]-pyrrolidin-1-yl-methanone] |  |  | 1270 | 
25 | CCN(CCc1ccccn1)C(=O)c1cc(N)c2nc(-c3ccc(Br)o3)nn2c1 [Example 22, 8-Amino-2-(5-bromo-furan-2-yl)-[1,2,4]triazolo[1,5-a]pyridine-6-carboxylic acid ethyl-(2-pyridin-2-yl-ethyl)-amide] |  |  | 1420 | 
26 | Cc1ccc(-c2nc3c(N)cc(C(=O)N4CCCCC4)cn3n2)o1 [Example 84, [8-Amino-2-(5-methyl-furan-2-yl)-[1,2,4]triazolo[1,5-a]pyridin-6-yl]-piperidin-1-yl-methanone] |  |  | 1270 | 
27 | Cc1ccc(-c2nc3c(N)cc(C(=O)N4CCCC4)cn3n2)o1 [Example 83, [8-Amino-2-(5-methyl-furan-2-yl)-[1,2,4]triazolo[1,5-a]pyridin-6-yl]-pyrrolidin-1-yl-methanone] |  |  | 1640 | 
28 | CCN(CC)C(=O)c1cc(N)c2nc(-c3ccc(Br)o3)nn2c1 [Example 10, 8-Amino-2-(5-bromo-furan-2-yl)-[1,2,4]triazolo[1,5-a]pyridine-6-carboxylic acid diethylamide] |  |  | 2260 | 
29 | CC1CCCN(C(=O)c2cc(N)c3nc(-c4ccc(Br)o4)nn3c2)C1 (stereo not drawn) [Example 20, [8-Amino-2-(5-bromo-furan-2-yl)-[1,2,4]triazolo[1,5-a]pyridin-6-yl]-(3-methyl-piperidin-1-yl)-methanone] |  |  | 803 | 
30 | CCN(CCOC)C(=O)c1cc(N)c2nc(-c3ccc(C)s3)nn2c1 [Example 99, 8-Amino-2-(5-methyl-thiophen-2-yl)-[1,2,4]triazolo[1,5-a]pyridine-6-carboxylic acid ethyl-(2-methoxy-ethyl)-amide] | 238 |  |  | 
31 | CCN(CC)C(=O)C1CCCN(C(=O)c2cc(N)c3nc(-c4ccccc4)nn3c2)C1 (stereo not drawn) [Example 73, 1-(8-Amino-2-phenyl-[1,2,4]triazolo[1,5-a]pyridine-6-carbonyl)-piperidine-3-carboxylic acid diethylamide] | 998 |  |  | 
